The numbers were not newly measured in patent US20210316006A1, “PYRROLOBENZODIAZEPINE CONJUGATES” (priority 2018, published 2021), which cites them from elsewhere.

The conditions of series [1]: quoted from Mantaj et al. 2016.
The conditions of series [2]: in vitro; quoted from Gregson et al. 1999.

As for `COc1cc2c(cc1OCCCOc1cc3c(cc1OC)C(=O)N1CCC[C@H]1C=N3)N=C[C@@H]1CCCN1C2=O` [DSB-120], the activity in vivo result in series [1] is reported as “poor activity in vivo”.

Regarding `C=C1C[C@H]2C=Nc3cc(OCCCOc4cc5c(cc4OC)C(=O)N4CC(=C)C[C@H]4C=N5)c(OC)cc3C(=O)N2C1` [SG2000], the “cytotoxic potency relative to DSB-120” value in series [2] was ~9000 fold.
